Reference: patent US7915245B2, “Methods and compositions of trail-death receptor agonists/activators” (The Board of Regents of the University of Texas System, priority 2007, dated 2011)

Assays:
Format in all cases: in vivo, Balb c nude mice
[1] = system: breast cancer MDA-MB-468 cells xenografted; experiment: MDA-MB-468 xenograft tumor growth; conditions: 40 mg/kg iv, 5 days per week
Method: (§1) FIG. 30. […] MDA-MB-468 cells (2×10^6 cells, in a final volume of 0.1 ml PBS) were injected subcutaneously in the right flank of Balb c nude mice. After tumor formation (about 100 mm^3), nude mice were treated (iv) with vehicle control (0.1 ml normal saline), and DRA9S (40 mg/kg, 0.1 ml volume) everyday 5 days per week throughout the duration of the experiment. Tumor volume was calculated using the equation: (volume=length×width×depth×0.5236 mm^3). Data represent mean±S.E.
MDA-MB-468 cells (2×10^6 cells, in a final volume of 0.1 ml PBS) were injected subcutaneously in the right flank of Balb c nude mice. After tumor formation (about 100 mm^3), nude mice were treated (iv) with vehicle control (0.1 ml normal saline), and DRA9S (40 mg/kg, 0.1 ml volume) everyday 5 days per week throughout the duration of the experiment. Tumor volume was calculated using the equation: (volume=length×width×depth×0.5236 mm^3). See, for example, FIG. 30. Data represent mean ±S.E.

[2] = system: pancreatic cancer AsPC-1 cells xenografted; experiment: AsPC-1 xenograft tumor growth; conditions: 20, 40 mg/kg iv, 5 days per week
Method: FIG. 27. […] AsPC-1 cells (2×10^6 cells as a 50% suspension in Matrigel, Becton Dickinson, Bedford, Mass., in a final volume of 0.1 ml) were injected subcutaneously in the right flank of Balb c nude mice. After tumor formation (about 100 mm^3), nude mice (10 per group) were treated (iv) with vehicle control (0.1 ml normal saline), DRA11 (20 mg/kg, 0.1 ml volume), and DRA11 (40 mg/kg, 0.1 ml volume) everyday 5 days per week throughout the duration of the experiment. Tumor volume was calculated using the equation: (volume=length×width×depth×0.5236 mm^3).
FIG. 31. […] MDA-MB-468 cells (2×10^6 cells, in a final volume of 0.1 ml PBS) were injected subcutaneously in the right flank of Balb c nude mice. […] Tumor volume was calculated using the equation: (volume=length×width×depth×0.5236 mm^3). […]
AsPC-1 cells (2×10^6 cells as a 50% suspension in Matrigel, Becton Dickinson, Bedford, Mass., in a final volume of 0.1 ml) were injected subcutaneously in the right flank of Balb c nude mice. […] Tumor volume was calculated using the equation: (volume=length×width×depth×0.5236 mm^3). […]
MDA-MB-468 cells (2×10^6 cells, in a final volume of 0.1 ml PBS) were injected subcutaneously in the right flank of Balb c nude mice. […] Tumor volume was calculated using the equation: (volume=length×width×depth×0.5236 mm^3). […]

[3] = system: prostate cancer PC-3 cells xenografted; experiment: PC-3 xenograft tumor growth; conditions: 40 mg/kg iv, 5 days per week
Method: as §1, with “26.” for “30.”, “PC-3” for “MDA-MB-468”, “ml)” for “ml PBS)”, “saline), DRA11 (20 mg/kg, 0.1 ml volume), DRA11 (30 mg/kg, 0.1 ml volume),” for “saline),”, “DRA11” for “DRA9S”
as §1, with “29.” for “30.”, “PC-3” for “MDA-MB-468”, “(1×10^6” for “(2×10^6”, “Data represent mean±S.E.” left out
PC-3 cells (2×10^6 cells, in a final volume of 0.1 ml) were injected subcutaneously in the right flank of Balb c nude mice. […] Tumor volume was calculated using the equation: (volume=length×width×depth×0.5236 mm^3). […]
PC-3 cells (1×10^6 cells, in a final volume of 0.1 ml PBS) were injected subcutaneously in the right flank of Balb c nude mice. […] Tumor volume was calculated using the equation: (volume=length×width×depth×0.5236 mm^3). […]

CCOc1cc(Br)c(Br)c(/C=N/c2cccc(C(=O)O)c2C)c1O [DRA9S]
inhibits growth: growth of xenografted MDA-MB-468 tumors (tumor volume) [1] | growth of xenografted AsPC-1 tumors (tumor volume) [2] | growth of xenografted PC-3 tumors (tumor volume) [3]
